Data from patent publication US20100087392A1 (Pierre Fabre Medicament, priority 2007, published 2010).

Test: in vivo
Conditions: rat, po, 20 mg/kg
Description: Chromatographic Conditions: • Column: Synergi Fusion-RP 80, 2×50 mm, 4 microns
Mobile Phase: • Channel A: 13.3 mM ammonium formate/6.7 mM formic acid in water • Channel B: 6 mM ammonium formate/3 mM formic acid in water/acetonitrile (1/9, v/v)
• Plot of the curve/obtaining the plasma profile=plasma concentration as a function of the time post administration

**Q.** What does the source list for `CC(C)Cc1ccc(C(C)C(=O)O)cc1` (stereo not drawn) [IBU alone, ibuprofen]?
**A.** AUC: 7190 ng·h/mL; Cmax: 2280 ng/mL; Tmax: 30 min
